Data reported in US20120232003A1, “COMPOSITIONS AND METHODS FOR DIABETES TREATMENT” (priority 2009, published 2012).

Experiments:
male lean C57BL6 mice [1] = assay: Insulin levels post glucose dosing by ELISA (Example 1); assay type: in vivo; details: 5 μg/mouse, oral glucose 3 g/kg
Protocol: (§1) In this experiment, male lean C57BL6 mice were used. […] The mice were randomized to achieve similar body weight and glucose for each group before dosing. All animals were subjected to fasting at the start of the dark period (Group 1-4). Food was removed, and bedding materials were replaced with fresh bedding to eliminate any residual food. Animals remained under fast until the 120 minute time point was taken. Water was made available ad libitum throughout the study. A 30 mg/mL stock solution of melatonin (30 mg melatonin in 1 ml of pure sesame oil) was made. From this stock solution, 10 μL of stock was taken and diluted with 990 μL of sesame oil, resulting in a solution concentration of 300 μg/ml. This was then diluted 1:18, resulting in a final concentration of 16.6-16.7 μg/mL. Mice received 0.3 ml by subcutaneous injection (5 μg/mouse). […] Insulin and blood glucose levels were measured by standard methods. The oral glucose tolerance test was carried out as follows using a glucose oxidase reaction measured by a Precision glucometer. […] Blood glucose level of all animals in Group 1-4 were measured at time 0 (right before the glucose dosing), 5, 10, 20, 30, 60 and 120 minutes post glucose dosing (7 time points). Insulin levels were also measured at 0, 30, 60, and 120 minutes from separate collections of tail vein blood obtained post glucose dosing by Crystal Chemistry ELISA.

male lean C57BL6 mice [2] = assay: Oral glucose tolerance test, blood glucose levels (Example 1); assay type: in vivo; details: 5 μg/mouse, oral glucose 3 g/kg
Protocol: as §1

[3] = tested on: rat insulinoma cells (INS1); details: cited from earlier work
[4] = tested on: mouse C2C12 skeletal muscle cells; details: cited from earlier work
rat model of diabetes = details: cited from earlier work
male C57BL6 DIO mice = assay: Oral glucose tolerance test, blood glucose levels (Example 2); assay type: in vivo
Protocol: In this experiment, male C57BL6 DIO mice (10-11 weeks old, n=52) were used and maintained on a high fat diet. A total of 49 animals were used in this study. […] The mice were randomized to achieve similar body weight and glucose for each group before dosing. All animals were subjected to fasting at the start of the dark period (Groups 1-7). Food was removed, and bedding materials were replaced with fresh bedding to eliminate any residual food. Animals remained under fast until the 120 minute time point was taken. Water was made available ad libitum throughout the study. A 30 mg/mL stock solution of melatonin (30 mg melatonin in 1 ml of pure sesame oil) was made. From this stock solution, 10 μL of stock was taken and diluted with 990 μL of sesame oil, resulting in a solution concentration of 300 μg/ml. This was then diluted 1:18, resulting in a final concentration of 16.6-16.7 μg/mL. The doses of melatonin were adjusted based on the weight of the mouse. […] Blood glucose levels were measured by standard methods. […] Blood glucose level of all animals in Groups 1-7 were measured at time 0 (right before the glucose dosing), 15, 30, 60 and 120 minutes post glucose dosing (5 time points). Body weight was recorded twice per week prior to the study, and before the blood glucose level measurements. […]

[5] = cells exposed to melatonin and GLP-1 at the same time
[6] = overnight pretreatment with melatonin

Row | Compound | insulin levels (male lean C57BL6 mice [1]; 1-hour melatonin dose, SC -1 h, FIG. 1D) | insulin levels compared to vehicle alone (male lean C57BL6 mice [1]; 12-hour melatonin dose, SC -12 h, FIG. 1B) | glucose levels compared to vehicle alone (male lean C57BL6 mice [2]; 1-hour melatonin dose, SC -1 h, FIG. 1C) | blood glucose levels compared to vehicle alone (male lean C57BL6 mice [2]; 12-hour sustained melatonin dose, SC -12 h, FIG. 1A) | GLP-1 induced gene expression [3, 5] | GLP-1 induced insulin secretion [3, 5] | cAMP-response element-mediated gene expression in response to GLP-1 or forskolin [3, 6] | insulin secretion in response to GLP-1 or forskolin [3, 6] | insulin-promoter-driven luciferase gene expression in response to GLP-1 or forskolin [3, 6] | glucose transport [4] | blood glucose levels (rat model of diabetes) | protection against hyperglycemia-induced oxidative damage (rat model of diabetes) | effect on the anti-diabetic action of sitagliptin (male C57BL6 DIO mice; 12-hour melatonin dose SC with sitagliptin 10 mg/kg PO) | blood glucose levels (male C57BL6 DIO mice; sitagliptin 10 mg/kg alone, PO -1 h, FIG. 2B)
1 | COc1ccc2[nH]cc(CCNC(C)=O)c2c1 [melatonin, N-acetyl-5-methoxyindole-3-ethaneamine] | lower | much higher | not appreciably different | significantly decreased | antagonized | antagonized | marked increase | marked increase | marked increase | stimulates | without affecting | limited protection | does not inhibit | –
2 | N[C@@H](CC(=O)N1CCn2c(nnc2C(F)(F)F)C1)Cc1cc(F)c(F)cc1F [Sitagliptin] | – | – | – | – | – | – | – | – | – | – | – | – | – | decrease
